Measurements: US8546320B2, “Hsp9O-targeted anti-cancer chimeric peptide” (Kyoto University, priority 2008, dated 2013)
Where a SMILES comes first, the peptide text is derived from it.

Key:
cancer cells = experiment: Cell viability assay, summary statements on cancer cells; assay type: cell-based; conditions: single mutation in TPR or Antp region of Antp-TPR
Caki-1 = assay type: cell-based, human; conditions: Caki-1; for Anti-cancer activity (% relative to wild-type peptide) / Decrease in cell survival rate (% relative to wild-type peptide): wild-type peptide = 100%
Procedure: A total of 3×10^3 cells were inoculated per well on a 96 well plate and cultured in a medium containing 10% FBS for 24 hours, and incubated with 100 μl of a peptide having a gradual increase in concentration at 37° C. for 48 to 72 hours. The survival rate of the cells was measured by using WST-8 solution (Cell Count Reagent SF; Nacalai Tesque, Inc.).
(§1) Respective variant peptides were subjected to cell viability assay. Specifically, Caki-1 (American Type Culture Collection (Manassas, Va.) was inoculated in a total amount of 3×10^3 cells per well on a 96 well plate (Nunc™); the cells were cultured in a medium (DMEM (Tesque, Inc.) containing 10% FBS (fetal bovine serum; Biowest)) for 24 hours and incubated with 100 μl of a peptide having a gradual increase in concentration at 37° C. for 48 to 72 hours. The cell survival rate was measured by using WST-8 solution (Cell Count Reagent SF; Nacalai Tesque, Inc.) and compared with that of the wild-type Antp-TPR peptide.
as §1, with “medium” for “medium (DMEM (Tesque, Inc.)”, “FBS” for “FBS (fetal bovine serum; Biowest))”

Row | Structure (SMILES) | effect compared with the wild-type protein (summary of mutations) (cancer cells) | Anti-cancer activity (% relative to wild-type peptide) (Caki-1) [%] | Decrease in cell survival rate (% relative to wild-type peptide) (Caki-1) [%] | killing effect compared with the wild-type peptide (Caki-1)
1 | CC[C@H](C)[C@H](NC(=O)[C@H](CCCNC(=N)N)NC(=O)[C@H](C)NC(=O)[C@H](Cc1ccc(O)cc1)NC(=O)[C@H](C)NC(=O)[C@H](CCCCN)NC(=O)[C@H](CCCCN)NC(=O)[C@H](CCCCN)NC(=O)[C@H](Cc1c[nH]c2ccccc12)NC(=O)[C@H](CCCCN)NC(=O)[C@H](CCSC)NC(=O)[C@H](CCCNC(=N)N)NC(=O)[C@H](CCCNC(=N)N)NC(=O)[C@H](CC(N)=O)NC(=O)[C@H](CCC(N)=O)NC(=O)[C@H](Cc1ccccc1)NC(=O)[C@H](Cc1c[nH]c2ccccc12)NC(=O)[C@H](CC(C)C)NC(=O)[C@H](CCCCN)NC(=O)[C@@H](NC(=O)[C@H](CCC(N)=O)NC(=O)[C@@H](N)CCCNC(=N)N)[C@@H](C)CC)C(=O)NCC(=O)N[C@@H](CC(N)=O)C(=O)N[C@@H](CO)C(=O)N[C@@H](Cc1ccc(O)cc1)C(=O)N[C@@H](Cc1ccccc1)C(=O)N[C@@H](CCCCN)C(=O)O [Antp 15L-TPR] (H-RQIKLWFQNRRMKWKKKAYARIGNSYFK-OH; N-terminus and C-terminus assumed) | effective but with an effect lower than the wild-type protein | 73.75 | 31.29 | –
2 | CC[C@H](C)[C@H](NC(=O)[C@H](CCCNC(=N)N)NC(=O)[C@H](C)NC(=O)[C@H](Cc1ccc(O)cc1)NC(=O)[C@H](C)NC(=O)[C@H](CCCCN)NC(=O)[C@H](CCCCN)NC(=O)[C@H](CCCCN)NC(=O)[C@H](Cc1c[nH]c2ccccc12)NC(=O)[C@H](CCCCN)NC(=O)[C@H](CCSC)NC(=O)[C@H](CCCNC(=N)N)NC(=O)[C@H](CCCNC(=N)N)NC(=O)[C@H](CCC(N)=O)NC(=O)[C@H](CCC(N)=O)NC(=O)[C@H](Cc1ccccc1)NC(=O)[C@H](Cc1c[nH]c2ccccc12)NC(=O)[C@@H](NC(=O)[C@H](CCCCN)NC(=O)[C@@H](NC(=O)[C@H](CCC(N)=O)NC(=O)[C@@H](N)CCCNC(=N)N)[C@@H](C)CC)[C@@H](C)CC)C(=O)NCC(=O)N[C@@H](CC(N)=O)C(=O)N[C@@H](CO)C(=O)N[C@@H](Cc1ccc(O)cc1)C(=O)N[C@@H](Cc1ccccc1)C(=O)N[C@@H](CCCCN)C(=O)O [Antp N9Q-TPR] (H-RQIKIWFQQRRMKWKKKAYARIGNSYFK-OH; N-terminus and C-terminus assumed) | effect higher than the wild-type protein | 110.59 | 881.03 | stronger than that of the wild-type peptide
3 | CC[C@H](C)[C@H](NC(=O)[C@H](CCCNC(=N)N)NC(=O)[C@H](C)NC(=O)[C@H](Cc1ccc(O)cc1)NC(=O)[C@H](C)NC(=O)[C@H](CCCCN)NC(=O)[C@H](CCCCN)NC(=O)[C@H](CCCCN)NC(=O)[C@H](Cc1c[nH]c2ccccc12)NC(=O)[C@H](CCCCN)NC(=O)[C@H](CCSC)NC(=O)[C@H](CCCNC(=N)N)NC(=O)[C@H](CCCNC(=N)N)NC(=O)[C@H](CC(N)=O)NC(=O)[C@H](CCC(N)=O)NC(=O)[C@H](Cc1ccccc1)NC(=O)[C@H](Cc1c[nH]c2ccccc12)NC(=O)[C@@H](NC(=O)[C@H](CCCCN)NC(=O)[C@@H](NC(=O)[C@H](CC(N)=O)NC(=O)[C@@H](N)CCCNC(=N)N)[C@@H](C)CC)[C@@H](C)CC)C(=O)NCC(=O)N[C@@H](CC(N)=O)C(=O)N[C@@H](CO)C(=O)N[C@@H](Cc1ccc(O)cc1)C(=O)N[C@@H](Cc1ccccc1)C(=O)N[C@@H](CCCCN)C(=O)O [Antp Q2N-TPR] (H-RNIKIWFQNRRMKWKKKAYARIGNSYFK-OH; N-terminus and C-terminus assumed) | effect similar to that of the wild-type protein | 88.97 | 52.02 | –
4 | CC[C@H](C)[C@H](NC(=O)[C@H](CCCNC(=N)N)NC(=O)[C@H](C)NC(=O)[C@H](Cc1ccc(O)cc1)NC(=O)[C@H](C)NC(=O)[C@H](CCCCN)NC(=O)[C@H](CCCCN)NC(=O)[C@H](CCCNC(=N)N)NC(=O)[C@H](Cc1c[nH]c2ccccc12)NC(=O)[C@H](CCCCN)NC(=O)[C@H](CCSC)NC(=O)[C@H](CCCNC(=N)N)NC(=O)[C@H](CCCNC(=N)N)NC(=O)[C@H](CC(N)=O)NC(=O)[C@H](CCC(N)=O)NC(=O)[C@H](Cc1ccccc1)NC(=O)[C@H](Cc1c[nH]c2ccccc12)NC(=O)[C@@H](NC(=O)[C@H](CCCCN)NC(=O)[C@@H](NC(=O)[C@H](CCC(N)=O)NC(=O)[C@@H](N)CCCNC(=N)N)[C@@H](C)CC)[C@@H](C)CC)C(=O)NCC(=O)N[C@@H](CC(N)=O)C(=O)N[C@@H](CO)C(=O)N[C@@H](Cc1ccc(O)cc1)C(=O)N[C@@H](Cc1ccccc1)C(=O)N[C@@H](CCCCN)C(=O)O [Antp K15R-TPR] (H-RQIKIWFQNRRMKWRKKAYARIGNSYFK-OH; N-terminus and C-terminus assumed) | effect similar to that of the wild-type protein | 110.21 | 687.99 | stronger than that of the wild-type peptide
5 | CC[C@H](C)[C@H](NC(=O)[C@H](CCCNC(=N)N)NC(=O)[C@H](C)NC(=O)[C@H](Cc1ccc(O)cc1)NC(=O)[C@H](C)NC(=O)[C@H](CCCCN)NC(=O)[C@H](CCCCN)NC(=O)[C@H](CCCCN)NC(=O)[C@H](Cc1c[nH]c2ccccc12)NC(=O)[C@H](CCCCN)NC(=O)[C@H](CCSC)NC(=O)[C@H](CCCCN)NC(=O)[C@H](CCCNC(=N)N)NC(=O)[C@H](CC(N)=O)NC(=O)[C@H](CCC(N)=O)NC(=O)[C@H](Cc1ccccc1)NC(=O)[C@H](Cc1c[nH]c2ccccc12)NC(=O)[C@@H](NC(=O)[C@H](CCCCN)NC(=O)[C@@H](NC(=O)[C@H](CCC(N)=O)NC(=O)[C@@H](N)CCCNC(=N)N)[C@@H](C)CC)[C@@H](C)CC)C(=O)NCC(=O)N[C@@H](CC(N)=O)C(=O)N[C@@H](CO)C(=O)N[C@@H](Cc1ccc(O)cc1)C(=O)N[C@@H](Cc1ccccc1)C(=O)N[C@@H](CCCCN)C(=O)O [Antp R11K-TPR] (H-RQIKIWFQNRKMKWKKKAYARIGNSYFK-OH; N-terminus and C-terminus assumed) | effect similar to that of the wild-type protein | 104.39 | 158.09 | stronger than that of the wild-type peptide
6 | CC[C@H](C)[C@H](NC(=O)[C@H](CCCNC(=N)N)NC(=O)[C@H](C)NC(=O)[C@H](Cc1ccc(O)cc1)NC(=O)[C@H](C)NC(=O)[C@H](CCCCN)NC(=O)[C@H](CCCCN)NC(=O)[C@H](CCCCN)NC(=O)[C@H](Cc1c[nH]c2ccccc12)NC(=O)[C@H](CCCCN)NC(=O)[C@H](CCSC)NC(=O)[C@H](CCCNC(=N)N)NC(=O)[C@H](CCCNC(=N)N)NC(=O)[C@H](CC(N)=O)NC(=O)[C@H](CCC(N)=O)NC(=O)[C@H](Cc1ccccc1)NC(=O)[C@H](Cc1ccc(O)cc1)NC(=O)[C@@H](NC(=O)[C@H](CCCCN)NC(=O)[C@@H](NC(=O)[C@H](CCC(N)=O)NC(=O)[C@@H](N)CCCNC(=N)N)[C@@H](C)CC)[C@@H](C)CC)C(=O)NCC(=O)N[C@@H](CC(N)=O)C(=O)N[C@@H](CO)C(=O)N[C@@H](Cc1ccc(O)cc1)C(=O)N[C@@H](Cc1ccccc1)C(=O)N[C@@H](CCCCN)C(=O)O [Antp W6Y-TPR] (H-RQIKIYFQNRRMKWKKKAYARIGNSYFK-OH; N-terminus and C-terminus assumed) | effective but with an effect lower than the wild-type protein | 32.99 | 15.14 | –
7 | CC[C@H](C)[C@H](NC(=O)[C@H](CCCNC(=N)N)NC(=O)[C@H](C)NC(=O)[C@H](Cc1ccc(O)cc1)NC(=O)[C@H](C)NC(=O)[C@H](CCCCN)NC(=O)[C@H](CCCCN)NC(=O)[C@H](CCCCN)NC(=O)[C@H](Cc1c[nH]c2ccccc12)NC(=O)[C@H](CCCCN)NC(=O)[C@H](CCSC)NC(=O)[C@H](CCCNC(=N)N)NC(=O)[C@H](CCCNC(=N)N)NC(=O)[C@H](CC(N)=O)NC(=O)[C@H](CCC(N)=O)NC(=O)[C@H](Cc1ccc(O)cc1)NC(=O)[C@H](Cc1c[nH]c2ccccc12)NC(=O)[C@@H](NC(=O)[C@H](CCCCN)NC(=O)[C@@H](NC(=O)[C@H](CCC(N)=O)NC(=O)[C@@H](N)CCCNC(=N)N)[C@@H](C)CC)[C@@H](C)CC)C(=O)NCC(=O)N[C@@H](CC(N)=O)C(=O)N[C@@H](CO)C(=O)N[C@@H](Cc1ccc(O)cc1)C(=O)N[C@@H](Cc1ccccc1)C(=O)N[C@@H](CCCCN)C(=O)O [Antp F7Y-TPR] (H-RQIKIWYQNRRMKWKKKAYARIGNSYFK-OH; N-terminus and C-terminus assumed) | effective but with an effect lower than the wild-type protein | 29.86 | 14.56 | –
